Results from ChEMBL document CHEMBL5032528, “Development of novel tetrahydroisoquinoline-hydroxamate conjugates as potent dual SERDs/HDAC inhibitors for the treatment of breast cancer” (Eur J Med Chem, 2021).
The source made the active and inactive calls. The rule behind the calls is not given here.

Legend:
MCF7 [1] = experiment: Antiproliferative activity against human MCF7 cells assessed as reduction in cell growth measured after 6 days by WST8 assay; assay type: functional; details: time 6 day
Ishikawa [2] = experiment: Induction of human ishikawa cells proliferation at 300 nM measured after 48 hrs by CCK8 assay; assay type: functional
[3] = Lipophilicity, logD of compound in n-octanol and phosphate buffer at pH 7.4 after 1.5 hrs by HPLC analysis; assay type: physicochemical
[4] = Stability in human liver microsomes assessed as half life; assay type: ADME, Microsome
in vitro = details: human, liver microsomes
[5] = target: T1, Protein deacetylase HDAC6 (Homo sapiens, UniProt Q9UBN7); experiment: Inhibition of HDAC6 (unknown origin) using Ac-peptide as substrate preincubated for 15 mins followed by substrate addition and measured after 60 mins by fluorescence assay
T1 sequence (Q9UBN7 whole entry): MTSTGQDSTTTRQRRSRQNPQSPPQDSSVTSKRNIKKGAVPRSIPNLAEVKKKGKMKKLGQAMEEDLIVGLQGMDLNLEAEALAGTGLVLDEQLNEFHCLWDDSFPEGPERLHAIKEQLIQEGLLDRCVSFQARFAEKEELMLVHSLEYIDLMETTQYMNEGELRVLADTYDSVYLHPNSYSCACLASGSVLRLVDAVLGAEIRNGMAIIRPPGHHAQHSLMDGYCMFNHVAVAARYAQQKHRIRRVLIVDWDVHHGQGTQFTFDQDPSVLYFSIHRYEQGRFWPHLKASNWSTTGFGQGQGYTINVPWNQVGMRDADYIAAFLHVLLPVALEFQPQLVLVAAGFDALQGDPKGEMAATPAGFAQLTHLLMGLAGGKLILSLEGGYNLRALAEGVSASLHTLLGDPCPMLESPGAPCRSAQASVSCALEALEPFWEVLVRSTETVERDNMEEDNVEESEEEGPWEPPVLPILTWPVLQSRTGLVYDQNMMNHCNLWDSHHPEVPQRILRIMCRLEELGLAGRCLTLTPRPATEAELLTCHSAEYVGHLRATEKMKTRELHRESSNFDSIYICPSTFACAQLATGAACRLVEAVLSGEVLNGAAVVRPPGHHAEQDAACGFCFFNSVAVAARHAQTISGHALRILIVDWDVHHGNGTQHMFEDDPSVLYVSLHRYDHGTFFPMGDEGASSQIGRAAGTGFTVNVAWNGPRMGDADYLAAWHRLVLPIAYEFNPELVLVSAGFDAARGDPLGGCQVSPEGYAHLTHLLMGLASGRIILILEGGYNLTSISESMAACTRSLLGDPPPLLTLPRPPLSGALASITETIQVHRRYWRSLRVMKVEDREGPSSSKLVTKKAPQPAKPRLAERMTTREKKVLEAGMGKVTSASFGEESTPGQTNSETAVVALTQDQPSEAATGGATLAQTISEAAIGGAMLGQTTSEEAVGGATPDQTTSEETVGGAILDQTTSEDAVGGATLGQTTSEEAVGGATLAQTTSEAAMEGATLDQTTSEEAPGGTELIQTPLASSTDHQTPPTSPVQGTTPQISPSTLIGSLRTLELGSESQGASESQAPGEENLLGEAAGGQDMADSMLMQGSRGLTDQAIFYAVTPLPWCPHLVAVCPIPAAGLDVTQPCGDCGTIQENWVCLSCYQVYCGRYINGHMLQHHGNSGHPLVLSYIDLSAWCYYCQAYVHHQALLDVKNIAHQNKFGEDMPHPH

Histone deacetylase 1 = Histone deacetylase 1 (Homo sapiens, UniProt Q13547); experiment: Inhibition of HDAC1 (unknown origin)
Sequence of Histone deacetylase 1 (Q13547 whole entry): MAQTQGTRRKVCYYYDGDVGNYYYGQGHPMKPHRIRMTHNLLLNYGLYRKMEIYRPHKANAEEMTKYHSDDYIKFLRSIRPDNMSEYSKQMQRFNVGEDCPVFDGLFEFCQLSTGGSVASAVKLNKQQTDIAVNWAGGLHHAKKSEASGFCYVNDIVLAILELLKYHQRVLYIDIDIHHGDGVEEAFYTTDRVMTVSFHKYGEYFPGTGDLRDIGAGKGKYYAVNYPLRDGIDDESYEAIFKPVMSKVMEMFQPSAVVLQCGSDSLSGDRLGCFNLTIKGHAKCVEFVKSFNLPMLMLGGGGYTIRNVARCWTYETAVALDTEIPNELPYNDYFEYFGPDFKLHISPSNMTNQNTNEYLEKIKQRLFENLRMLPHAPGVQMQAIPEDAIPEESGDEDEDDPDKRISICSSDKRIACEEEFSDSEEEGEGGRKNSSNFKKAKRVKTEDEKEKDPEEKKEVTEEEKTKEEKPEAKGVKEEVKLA

Histone deacetylase 4 = Histone deacetylase 4 (Homo sapiens, UniProt P56524); experiment: Inhibition of HDAC4 (unknown origin)
Sequence of Histone deacetylase 4 (P56524 whole entry): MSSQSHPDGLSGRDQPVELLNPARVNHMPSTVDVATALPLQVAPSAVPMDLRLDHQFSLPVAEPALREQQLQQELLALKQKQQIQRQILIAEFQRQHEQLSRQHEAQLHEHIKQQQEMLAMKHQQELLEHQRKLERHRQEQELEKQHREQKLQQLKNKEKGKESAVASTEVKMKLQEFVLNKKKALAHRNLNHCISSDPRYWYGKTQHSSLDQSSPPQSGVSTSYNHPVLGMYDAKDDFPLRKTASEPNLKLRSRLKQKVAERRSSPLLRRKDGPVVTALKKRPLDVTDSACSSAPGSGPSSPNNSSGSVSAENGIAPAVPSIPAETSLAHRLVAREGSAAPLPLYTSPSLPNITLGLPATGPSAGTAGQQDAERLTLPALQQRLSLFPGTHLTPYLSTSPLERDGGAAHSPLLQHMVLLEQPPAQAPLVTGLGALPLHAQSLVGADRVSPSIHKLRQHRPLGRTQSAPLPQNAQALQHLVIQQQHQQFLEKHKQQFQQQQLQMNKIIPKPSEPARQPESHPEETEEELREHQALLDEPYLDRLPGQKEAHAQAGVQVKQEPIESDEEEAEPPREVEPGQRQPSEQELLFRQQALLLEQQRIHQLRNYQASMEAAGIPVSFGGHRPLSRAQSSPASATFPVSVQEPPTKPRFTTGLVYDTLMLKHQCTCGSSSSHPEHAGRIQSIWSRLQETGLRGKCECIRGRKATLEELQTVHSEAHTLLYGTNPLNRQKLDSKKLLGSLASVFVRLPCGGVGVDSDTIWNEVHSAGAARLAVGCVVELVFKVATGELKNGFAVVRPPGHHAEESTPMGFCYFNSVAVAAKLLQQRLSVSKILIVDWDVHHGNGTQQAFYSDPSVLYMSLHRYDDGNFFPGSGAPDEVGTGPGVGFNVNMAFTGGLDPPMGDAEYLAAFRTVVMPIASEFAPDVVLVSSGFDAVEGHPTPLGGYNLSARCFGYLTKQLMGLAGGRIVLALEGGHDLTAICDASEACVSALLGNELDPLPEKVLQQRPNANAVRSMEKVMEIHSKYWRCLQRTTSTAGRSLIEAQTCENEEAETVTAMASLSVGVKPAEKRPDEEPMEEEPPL

Estrogen receptor = target: T2, Estrogen receptor (Homo sapiens, UniProt P03372); experiment: Displacement of fluorescent estradiol from full-length ERalpha (unknown origin) measured after 2 hrs by fluorescence polarization assay
T2 sequence (P03372 whole entry): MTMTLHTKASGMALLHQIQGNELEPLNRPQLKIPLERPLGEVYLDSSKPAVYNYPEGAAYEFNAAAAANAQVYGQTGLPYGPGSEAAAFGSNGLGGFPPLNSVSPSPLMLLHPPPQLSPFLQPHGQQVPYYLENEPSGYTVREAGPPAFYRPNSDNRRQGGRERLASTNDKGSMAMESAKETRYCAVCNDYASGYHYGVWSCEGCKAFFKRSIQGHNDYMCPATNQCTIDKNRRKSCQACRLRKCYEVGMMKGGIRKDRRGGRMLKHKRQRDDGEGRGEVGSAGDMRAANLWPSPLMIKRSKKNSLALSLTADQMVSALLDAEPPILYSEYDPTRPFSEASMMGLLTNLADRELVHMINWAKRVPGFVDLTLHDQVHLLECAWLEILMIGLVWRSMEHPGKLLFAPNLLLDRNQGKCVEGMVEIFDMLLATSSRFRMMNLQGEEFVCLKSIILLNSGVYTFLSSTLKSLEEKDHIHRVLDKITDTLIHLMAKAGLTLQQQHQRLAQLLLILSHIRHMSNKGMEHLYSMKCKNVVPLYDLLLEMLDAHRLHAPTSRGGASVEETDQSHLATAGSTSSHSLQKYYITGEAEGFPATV

[6] = target: T3, Estrogen receptor (Homo sapiens) (UniProt P03372); experiment: Inhibition of ERalpha signaling in human MCF7 cells measured after 24 hrs by Western blot assay; assay type: cell-based; details: dose 10-10000 nM
T3 sequence (whole entry): T2 sequence (P03372 whole entry)

[7] = target: T3, Estrogen receptor (Homo sapiens); experiment: Induction of ERalpha degradation in human MCF7 cells at 0.1 uM measured after 24 hrs by Western blot analysis; assay type: cell-based
MCF7 [8] = experiment: Antitumor activity against human MCF7 cells xenografted in BALB/c nude mouse assessed as TGI at 5 mg/kg/day, iv administered for 21 days; assay type: functional; details: 504 h, time 21 day, read-out: TGI
[9] = target: T4, Protein deacetylase HDAC6 (Homo sapiens) (UniProt Q9UBN7); experiment: Inhibition of HDAC6 in human MCF7 cells assessed as increase in intracellular acetylation level of alpha-tubulin after 24 hrs by Western blot analysis; assay type: cell-based; details: dose 10-1000 nM
T4 sequence (whole entry): T1 sequence (Q9UBN7 whole entry)

[10] = target: T3, Estrogen receptor (Homo sapiens); experiment: Antagonist activity at ERalpha in human MCF7 cells assessed as reduction in E2-induced PGR gene expression incubated for 24 hrs by qRT-PCR analysis; assay type: cell-based; details: filed as antagonist, dose 3-300 nM
[11] = target: T3, Estrogen receptor (Homo sapiens); experiment: Antagonist activity at ERalpha in human MCF7 cells assessed as reduction in E2-induced GREB1 gene expression incubated for 24 hrs by qRT-PCR analysis; assay type: cell-based; details: filed as antagonist, dose 3-300 nM
MCF7 [12] = experiment: Induction of apoptosis in human MCF7 cells at 0.1 uM incubated for 24 hrs by PI staining based flow cytometry analysis; assay type: functional, cell-based
[13] = target: T3, Estrogen receptor (Homo sapiens); experiment: Antagonist activity at ERalpha activity in human ishikawa cells assessed as reduction in PGR mRNA expression at 10 to 300 nM for 24 hrs; assay type: cell-based; details: filed as antagonist, dose 10-300 nM
Ishikawa [14] = experiment: Induction of human ishikawa cells proliferation at 39 to 10000 nM measured after 48 hrs by CCK8 assay; assay type: functional; details: dose 39-10000 nM
MDA-MB-231 [15] = experiment: Antiproliferative activity against human MDA-MB-231 cells assessed as reduction in cell growth measured after 2 days by CCK8 assay; assay type: functional, cell-based; details: MDA-MB-231, 48 h
[16] = target: Histone deacetylase (Homo sapiens) (UniProt Q13547+O15379+Q9UBN7+Q92769+Q9UQL6+Q8WUI4+Q9BY41+Q96DB2+P56524+Q9UKV0+Q969S8); experiment: Inhibition of HDAC in human MDA-MB-231 cells assessed as increase in alpha tubulin acetylation after 24 hrs by immunofluorescence assay; assay type: cell-based; details: dose 5.0 µM
MDA-MB-231 [17] = experiment: Antimigratory activity against human MDA-MB-231 cells measured after 48 hrs by scratch wound-healing assay; assay type: functional, cell-based
[18] = Stability in human plasma assessed as half life; assay type: ADME, cell-free
[19] = Toxicity in Balb/c mouse xenografted with human MCF7 cells assessed as body weight loss at 5 mg/kg/day, iv administered for 21 days; assay type: organism-based; details: in vivo, 504 h, time 21 day
Mus musculus = experiment: In vivo induction of ERalpha degradation in human […] cells xenografted in BALB/c mouse assessed as decrease in ERalpha level at 5 mg/kg/day, iv administered for 21 days by Western blot analysis; assay type: functional, organism-based; details: time 21.0 day
[20] = target: T3, Estrogen receptor (Homo sapiens); experiment: Inhibition of ERalpha signaling in human MCF7 cells at 1 uM measured after 24 hrs by Western blot assay; assay type: cell-based
[21] = target: T3, Estrogen receptor (Homo sapiens); experiment: Inhibition of ERalpha signaling in human MCF7 cells at 10 uM measured after 24 hrs by Western blot assay; assay type: cell-based
[22] = Toxicity in Balb/c mouse xenografted with human MCF7 cells assessed as change in organ morphology at 5 mg/kg/day, iv administered for 21 days by H and E staining based analysis; assay type: organism-based; details: in vivo, 504 h, time 21 day

C[C@]12CC[C@@H]3c4ccc(O)cc4C[C@@H](CCCCCCCCC[S+]([O-])CCCC(F)(F)C(F)(F)F)[C@H]3[C@@H]1CC[C@@H]2O (stereo partly specified) [FULVESTRANT]
GI50 (MCF7 [1]; Homo sapiens, MCF7, 144 h): 540 nM | Activity (Ishikawa [2]): Active | logD at 1.5 h [3]: 6.8 | half-life [4]: 1.56 min | CLint scaled (in vitro): 1150 mL/min/kg

CC(C)(F)CN1CCc2cc(O)ccc2C1c1ccc(OCCCCCCC(=O)NO)cc1 (stereo unspecified)
IC50 [5]: 62.8 nM | IC50 (Histone deacetylase 1): 582 nM | IC50 (Histone deacetylase 4): > 1000 nM | IC50 (Estrogen receptor): 90.8 nM | inhibition [6]: Dose-Dependent Effect | GI50 (MCF7 [1]; Homo sapiens, MCF7, 144 h): 170 nM | Activity [7]: 57% | inhibition in vivo at 5 mg/kg/day (MCF7 [8]): 58% | inhibition [9]: Dose-Dependent Effect | Activity [10]: Dose-Dependent Effect | Activity [11]: Dose-Dependent Effect | Activity (MCF7 [12]): Active | Activity [13]: Active | Activity (Ishikawa [14]): inactive | IC50 (MDA-MB-231 [15]): 380 nM | inhibition [16]: Dose-Dependent Effect | Activity (MDA-MB-231 [17]): Active | logD at 1.5 h [3]: 2.49 | half-life [4]: 18.8 min | half-life [18]: 458 min | Activity [19]: Non-Toxic | inhibition (Mus musculus): Active | inhibition [20]: Active | inhibition [21]: 100% | Activity [22]: Non-Toxic | CLint scaled (in vitro): 132 mL/min/kg

CC(C)(F)CN1CCc2cc(O)ccc2C1c1ccc(OC2CN(CC(=O)NO)C2)cc1 (stereo unspecified)
IC50 [5]: 175 nM | IC50 (Estrogen receptor): 78.2 nM | GI50 (MCF7 [1]; Homo sapiens, MCF7, 144 h): 1820 nM | Activity [7]: 32%

CC(C)(F)CN1CCc2cc(O)ccc2C1c1ccc(OCCCCCC(=O)NO)cc1 (stereo unspecified)
IC50 [5]: 65.9 nM | IC50 (Estrogen receptor): 102 nM | GI50 (MCF7 [1]; Homo sapiens, MCF7, 144 h): 950 nM | Activity [7]: 31%

O=C(CCCCCCC(=O)Nc1ccccc1)NO [VORINOSTAT]
GI50 (MCF7 [1]): 1250 nM

CC(C)(F)CN1CCc2cc(O)ccc2C1c1ccc(OCCCOc2ccc(C(=O)NO)cc2)cc1 (stereo unspecified)
IC50 (Estrogen receptor): 132 nM | GI50 (MCF7 [1]; Homo sapiens, MCF7, 144 h): 460 nM | Activity [7]: inactive

CC(C)(F)CN1CCc2cc(O)ccc2C1c1ccc(C(=O)NO)cc1 (stereo unspecified)
IC50 (Estrogen receptor): 96.3 nM | GI50 (MCF7 [1]; Homo sapiens, MCF7, 144 h): 230 nM | Activity [7]: 5%
